What all share (assay type): in vivo
Assay [1] deals with VIOTR. As to the kind of experiment: Pre-emergence herbicidal action against harmful plants. The text has this: (§1) Seeds of monocotyledonous and dicotyledonous weed plants and crop plants are placed in wood-fibre pots in sandy loam and covered with soil. The compounds according to the invention and the compounds known from the prior art, formulated in the form of wettable powders (WP) or as emulsion concentrates (EC), are then applied as aqueous suspension or emulsion at a water application rate of 600 to 800 I/ha (converted) with the addition of 0.2% of wetting agent to the surface of the covering soil. After the treatment, the pots are placed in a greenhouse and kept under good growth conditions for the test plants. The visual assessment of the damage to the test plants is carried out after a trial period of 3 weeks by comparison with untreated controls (herbicidal activity in percent (%): 100% activity=the plants have died, 0% activity=like control plants, —=not tested). The results of comparative table A show the compounds according to the invention have a higher herbicidal activity than the compounds of the greatest structural similarity known from the closest prior art.

The subject of assay [2] is SETVI. Described as above. Particulars: dosage 320 g/ha, visual assessment after 3 weeks (Table C).
Description: as §1

Assay [3] deals with Amaranthus retroflexus. The assay is described as above. Particulars: 504 h, dosage 320 g/ha, read-out: Herbicidal action against AMARE.
Description: as §1, with “The abbreviations used in the tables below denote: • ABUTH Abutilon theophrasti • AMARE Amaranthus retroflexus • ECHCG Echinochloa crus galli • PHBPU Phartoitis purpureum • STEME Stellaria media • ALOMY Alopecurus myosuroides • AVEFA Avena fatua • MATIN Matricaria inodora • POLCO Fallopia convolvulus • VERPE Veronica persica 1. Pre-emergence Herbicidal Action Against Harmful Plants Seeds” for “Seeds”

Assay [4] relates to Phartoitis purpureum. The assay is described as above. Particulars: dosage 320 g/ha, visual assessment after 3 weeks (Table C).
Description: as §1, with “The abbreviations used in the tables below denote: • ABUTH Abutilon theophrasti • AMARE Amaranthus retroflexus • ECHCG Echinochloa crus galli • PHBPU Phartoitis purpureum • STEME Stellaria media • ALOMY Alopecurus myosuroides • AVEFA Avena fatua • MATIN Matricaria inodora • POLCO Fallopia convolvulus • VERPE Veronica persica 1. Pre-emergence Herbicidal Action Against Harmful Plants Seeds” for “Seeds”

Assay [5] deals with Echinochloa crus galli. Described as above. Particulars: Echinochloa, 504 h, dosage 320 g/ha, read-out: Herbicidal action against ECHCG.
Description: as §1, with “The abbreviations used in the tables below denote: • ABUTH Abutilon theophrasti • AMARE Amaranthus retroflexus • ECHCG Echinochloa crus galli • PHBPU Phartoitis purpureum • STEME Stellaria media • ALOMY Alopecurus myosuroides • AVEFA Avena fatua • MATIN Matricaria inodora • POLCO Fallopia convolvulus • VERPE Veronica persica 1. Pre-emergence Herbicidal Action Against Harmful Plants Seeds” for “Seeds”

Assay [6] relates to Abutilon theophrasti. The description is as above. Particulars: Abutilon theophrasti, 504 h, read-out: Herbicidal action against ABUTH; for pest or weed control at 320 g/ha: dosage 320 g/ha.
Description: as §1, with “The abbreviations used in the tables below denote: • ABUTH Abutilon theophrasti • AMARE Amaranthus retroflexus • ECHCG Echinochloa crus galli • PHBPU Phartoitis purpureum • STEME Stellaria media • ALOMY Alopecurus myosuroides • AVEFA Avena fatua • MATIN Matricaria inodora • POLCO Fallopia convolvulus • VERPE Veronica persica 1. Pre-emergence Herbicidal Action Against Harmful Plants Seeds” for “Seeds”

Assay [7] has as its system Matricaria inodora. Described as above. Particulars: Tripleurospermum inodorum, 504 h, dosage 320 g/ha, read-out: Herbicidal action against MATIN.
Description: as §1, with “The abbreviations used in the tables below denote: • ABUTH Abutilon theophrasti • AMARE Amaranthus retroflexus • ECHCG Echinochloa crus galli • PHBPU Phartoitis purpureum • STEME Stellaria media • ALOMY Alopecurus myosuroides • AVEFA Avena fatua • MATIN Matricaria inodora • POLCO Fallopia convolvulus • VERPE Veronica persica 1. Pre-emergence Herbicidal Action Against Harmful Plants Seeds” for “Seeds”

For assay [8], the system named is Fallopia convolvulus. As to the kind of experiment: Post-emergence herbicidal action against harmful plants. Particulars: 504 h, dosage 80 g/ha, read-out: Herbicidal action against POLCO. The text has this: (§2) The abbreviations used in the tables below denote: • ABUTH Abutilon theophrasti • AMARE Amaranthus retroflexus • ECHCG Echinochloa crus galli • PHBPU Phartoitis purpureum • STEME Stellaria media • ALOMY Alopecurus myosuroides • AVEFA Avena fatua • MATIN Matricaria inodora • POLCO Fallopia convolvulus • VERPE Veronica persica 1. Pre-emergence Herbicidal Action Against Harmful Plants Seeds of monocotyledonous and dicotyledonous weed and crop plants are placed in sandy loam in wood-fibre pots, covered with soil and cultivated in a greenhouse under good growth conditions. 2 to 3 weeks after sowing, the test plants are treated at the one-leaf stage. The compounds according to the invention, formulated in the form of wettable powders (WP) or as emulsion concentrates (EC), are then sprayed as aqueous suspension or emulsion at a water application rate of 600 to 800 I/ha (converted) with the addition of 0.2% of wetting agent onto the green parts of the plants. After the test plants have been kept in the greenhouse under optimum growth conditions for about 3 weeks, the activity of the preparations is rated visually in comparison to untreated controls (herbicidal activity in percent (%): 100% activity=the plants have died, 0% activity=control plants, —=not tested).

Assay [9] concerns Phartoitis purpureum. Described as above. Particulars: 504 h; for pest or weed control at 80 g/ha: dosage 80 g/ha.
Description: as §2

Assay [10] deals with Echinochloa crus galli. The description is as above. Particulars: 504 h, dosage 80 g/ha, read-out: Herbicidal action against ECHCG.
Description: as §2

In assay [11] the test system is Matricaria inodora. The assay is described as above. Particulars: Tripleurospermum inodorum, 504 h, read-out: Herbicidal action against MATIN; for pest or weed control at 80 g/ha: dosage 80 g/ha.
Description: as §2

Assay [12] concerns VIOTR. Described as above. The protocol: as §2, with “Seeds” for “The abbreviations used in the tables below denote: • ABUTH Abutilon theophrasti • AMARE Amaranthus retroflexus • ECHCG Echinochloa crus galli • PHBPU Phartoitis purpureum • STEME Stellaria media • ALOMY Alopecurus myosuroides • AVEFA Avena fatua • MATIN Matricaria inodora • POLCO Fallopia convolvulus • VERPE Veronica persica 1. Pre-emergence Herbicidal Action Against Harmful Plants Seeds”

Assay [13] has as its system Stellaria media. The experiment in a line: Pre-emergence herbicidal action against harmful plants. Particulars: 504 h, read-out: Herbicidal action against STEME.
Description: as §1, with “The abbreviations used in the tables below denote: • ABUTH Abutilon theophrasti • AMARE Amaranthus retroflexus • ECHCG Echinochloa crus galli • PHBPU Phartoitis purpureum • STEME Stellaria media • ALOMY Alopecurus myosuroides • AVEFA Avena fatua • MATIN Matricaria inodora • POLCO Fallopia convolvulus • VERPE Veronica persica 1. Pre-emergence Herbicidal Action Against Harmful Plants Seeds” for “Seeds”

Assay [14] deals with Amaranthus retroflexus. As to the kind of experiment: Post-emergence herbicidal action against harmful plants. Particulars: 504 h, read-out: Herbicidal action against AMARE.
Description: as §2

Assay [15] relates to Veronica persica. The description is as above. Particulars: 504 h, read-out: Herbicidal action against VERPE.
Description: as §2

For assay [16], the system named is Stellaria media. Described as above. Particulars: 504 h, read-out: Herbicidal action against STEME.
Description: as §2

The test system of assay [17] is Veronica persica. The experiment in a line: Pre-emergence herbicidal action against harmful plants. Particulars: 504 h, dosage 320 g/ha, visual assessment after 3 weeks (Table A), read-out: Herbicidal action against VERPE.
Description: as §1, with “The abbreviations used in the tables below denote: • ABUTH Abutilon theophrasti • AMARE Amaranthus retroflexus • ECHCG Echinochloa crus galli • PHBPU Phartoitis purpureum • STEME Stellaria media • ALOMY Alopecurus myosuroides • AVEFA Avena fatua • MATIN Matricaria inodora • POLCO Fallopia convolvulus • VERPE Veronica persica 1. Pre-emergence Herbicidal Action Against Harmful Plants Seeds” for “Seeds”

Assay [18] has as its system Avena fatua. The description is as above. Particulars: dosage 320 g/ha, visual assessment after 3 weeks (Table A).
Description: as §1, with “The abbreviations used in the tables below denote: • ABUTH Abutilon theophrasti • AMARE Amaranthus retroflexus • ECHCG Echinochloa crus galli • PHBPU Phartoitis purpureum • STEME Stellaria media • ALOMY Alopecurus myosuroides • AVEFA Avena fatua • MATIN Matricaria inodora • POLCO Fallopia convolvulus • VERPE Veronica persica 1. Pre-emergence Herbicidal Action Against Harmful Plants Seeds” for “Seeds”

Assay [19] concerns Abutilon theophrasti. The experiment in a line: Post-emergence herbicidal action against harmful plants. Particulars: 504 h, dosage 80 g/ha, visual rating after about 3 weeks (Table D), read-out: Herbicidal action against ABUTH.
Description: as §2

Setting [20] is: visual assessment after 3 weeks (Table C).
Where [21] appears, read: visual rating after about 3 weeks (Table E).
The mark [22] stands for this setting: dosage 80 g/ha, visual assessment after 3 weeks (Table B).
Setting [23] is: dosage 20 g/ha, visual rating after about 3 weeks (Table F).
The mark [24] stands for this setting: visual assessment after 3 weeks (Table A).
Where [25] appears, read: visual rating after about 3 weeks (Table D).
Where [26] appears, read: dosage 80 g/ha, visual rating after about 3 weeks (Table D).

We go through three compounds from patent US8557741B2, “3-aminocarbonyl-substituted benzoylcyclohexanediones and their use as herbicides” (Bayer CropScience AG, priority 2010, dated 2013).

Like-named read-outs stand apart in the source and are kept apart here.

On to `CCS(=O)(=O)c1ccc(C(=O)C2=C(O)CCCC2=O)c(Cl)c1OCC(=O)N(C)OC` [Compound S8, reference compound], for which the “Herbicidal action against VIOTR” value in assay [1] (dosage 320 g/ha, visual assessment after 3 weeks (Table C)) came out at 20%; in [12] (dosage 80 g/ha, visual rating after about 3 weeks (Table E)) it was 80%. Besides, the “Herbicidal action against SETVI” value in [2] is recorded as 50%. For the same compound, the pest or weed control at 320 g/ha in [3] (setting [20]) was determined as 90%; in assay [5] (setting [20]) it was 60%; in assay [6] (setting [20]) it was 90%; in assay [7] (setting [20]) it was 90%. Moreover, the “Herbicidal action against PHPBU” value in [4] is given as 70%. For the same compound, the pest or weed control at 80 g/ha in [8] (setting [21]) turned out to be 80%; in assay [9] (visual rating after about 3 weeks (Table E), read-out: Herbicidal action against PHPBU) it was 80%; in assay [10] (setting [21]), 80%; in [11] (setting [21]), 60%.
For the compound `CCS(=O)(=O)c1ccc(C(=O)C2=C(O)CCCC2=O)c(C(F)(F)F)c1OC(C)C(=O)NC` (stereo not drawn) [Compound E11], the “Herbicidal action against VIOTR” value in assay [1] (setting [22]) turned out to be 90%; in assay [12] (setting [23]), 100%. Moreover, the pest or weed control at 80 g/ha came to 70% in assay [13] (setting [22]) and 90% in [6] (setting [22]). The pest or weed control at 20 g/ha in assay [14] (setting [23]) amounted to 100%; in [15] (setting [23]) it was 100%; in assay [16] (setting [23]) it was 90%; in [9] (dosage 20 g/ha, visual rating after about 3 weeks (Table F), read-out: Herbicidal action against PHPBU), 80%; in [11] (setting [23]), 90%.
Consider `CCN(C)C(=O)COc1c(S(C)(=O)=O)ccc(C(=O)C2=C(O)CCCC2=O)c1Cl` [Compound S7, reference compound], for which the pest or weed control at 320 g/ha in assay [3] (setting [24]) worked out at 100%; in assay [17], 100%; in assay [13] (dosage 320 g/ha, visual assessment after 3 weeks (Table A)), 90%; in assay [5] (setting [24]) it was 80%; in assay [6] (setting [24]), 80%; in [7] (setting [24]), 100%. For the same compound, in [18], the “Herbicidal action against AVEFA” value was 0%. Besides, the pest or weed control at 80 g/ha in assay [8] (setting [25]) was 10%; in assay [14] (setting [26]) it was 70%; in [15] (setting [26]), 100%; in [16] (setting [26]) it was 90%; in assay [9] (visual rating after about 3 weeks (Table D), read-out: Herbicidal action against PHBPU), 90%; in assay [10] (setting [25]), 60%. In addition, the pest or weed control at 80 g/ha in assay [19] was determined as 90%; in assay [11] (setting [25]) it was 80%.
